Drawing on paper PMC3050433, “The effects of maribavir on the autophosphorylation of ganciclovir resistant mutants of the cytomegalovirus UL97 protein” (Herpesviridae, 2010), this text covers reduction in autophosphorylation, effect on autophosphorylation and IC50 for 1 compound.

Where a chain is given by its changes, count along the chain named.

One experiment addresses T1, UL97 L397R (Human cytomegalovirus, UniProt Q68101, L397R).
T1 construct: PCR reaction to generate the full length UL97; honey bee melittin secretion signal (N); expressed in transfected cells; host or cells: Sf21 insect cells infected with recombinant baculovirus
T1 sequence (Q68101 1-707 L397R): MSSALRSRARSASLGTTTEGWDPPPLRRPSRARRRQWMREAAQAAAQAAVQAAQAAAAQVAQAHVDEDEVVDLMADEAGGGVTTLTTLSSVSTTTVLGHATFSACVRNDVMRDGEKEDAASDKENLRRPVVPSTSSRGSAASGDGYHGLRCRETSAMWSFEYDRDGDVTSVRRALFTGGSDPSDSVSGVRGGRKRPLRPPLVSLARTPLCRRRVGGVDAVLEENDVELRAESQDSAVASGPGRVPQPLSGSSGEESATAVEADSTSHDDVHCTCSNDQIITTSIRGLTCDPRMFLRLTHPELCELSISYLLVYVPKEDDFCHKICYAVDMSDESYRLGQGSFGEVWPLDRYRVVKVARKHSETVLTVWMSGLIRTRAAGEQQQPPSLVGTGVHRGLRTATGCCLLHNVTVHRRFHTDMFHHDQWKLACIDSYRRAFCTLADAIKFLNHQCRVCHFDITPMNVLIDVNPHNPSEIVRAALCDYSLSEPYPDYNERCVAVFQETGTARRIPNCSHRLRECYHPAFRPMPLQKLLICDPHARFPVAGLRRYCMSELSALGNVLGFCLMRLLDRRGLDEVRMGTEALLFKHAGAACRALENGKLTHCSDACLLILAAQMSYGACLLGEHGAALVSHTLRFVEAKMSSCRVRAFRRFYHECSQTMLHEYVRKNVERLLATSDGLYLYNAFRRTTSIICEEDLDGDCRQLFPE
Put plainly: UL97 autophosphorylation protein kinase assay, L397R. Format: biochemical. Conditions: L397R mutant. The procedure: (§1) Analysis of the autophosphorylation of wild type and mutant UL97 protein species was performed by a standard protein kinase assay as previously described (46). Briefly, purified protein was added to 2× protein kinase buffer (100 mM Tris HCl, pH9.0, 20 mM MgCl2, 10 μM ATP, 4 mM DTT, 2 M NaCl) and 370 KBq [γ^32P] ATP (Amersham), made up to 20 μl with SDW and incubated at 37°C. The reactions were terminated by the addition of 2× SDS sample buffer followed by boiling for 3 minutes. The amount of radiolabelled phosphate incorporated by autophosphorylation was analysed by SDS-PAGE and measured using the Biorad Mulitanalyst. The protein kinase assays were initially performed for 2 to 60 minutes to determine the maximum rate of phosphate incorporation, all assays were then performed at the maximum rate which equated to 5 minutes.
(§2) Enzyme kinetic analysis was performed on the purified wild type and mutant UL97 protein species as above using increasing concentrations of ATP (2 μM to 20 μM). The amount of incorporated radiolabelled phosphate was plotted against the concentration of ATP in a Lineweaver Burke plot to determine the Km for ATP for each UL97 species. […]

The target in another experiment is T2, UL97 V665I (Human cytomegalovirus, UniProt Q68101, V665I).
T2 construct: PCR reaction to generate the full length UL97; honey bee melittin secretion signal (N); made in house; host or cells: Sf21 insect cells, recombinant baculovirus (pMelBac C)
T2 sequence (Q68101 1-707 V665I): T1 sequence (Q68101 1-707 L397R) with R397L, V665I
The experiment in a line: UL97 autophosphorylation protein kinase assay, V665I. Format: biochemical. The conditions noted are these: V665I mutant. On the procedure: as §1, §2

The term IC50 denotes the point on the concentration scale where inhibition reaches its midpoint. As to `CC(C)Nc1nc2cc(Cl)c(Cl)cc2n1[C@H]1O[C@@H](CO)[C@H](O)[C@@H]1O` [maribavir, 5,6-dichloro-2-(isopropylamino)-1-beta-L-ribofuranosyl-1H-benzimidazole], the reduction in autophosphorylation entry at UL97 L397R (drug concentrations increased to 100 μM) was “did not exhibit a reduction in autophosphorylation”. In addition, the effect on autophosphorylation entry on UL97 L397R (maribavir 0.5 μM) was “unaffected”. For the same compound, the IC50 on UL97 V665I worked out at 30 nM.
